Results: patent US20220098197A1, “SALTS OF HETEROCYCLIC COMPOUND AND USE THEREOF” (priority 2019, published 2022)

Assays:
CS-induced ALI mice = test: CS-induced lung injury model: pulmonary histopathology (H&E); type: in vivo, Balb/c mice
Protocol: Model preparation: The mice were randomly divided into 5 groups (12 mice in each group), which were the control group (the mice were exposed to fresh air), the saline group (the mice were exposed to cigarette smoke), dexamethasone (Dex) group (1 mg/kg) (the mice were exposed to cigarette smoke), CT-NA 10 mg/kg group and CT-NA 30 mg/kg group (the mice were exposed to cigarette smoke). According to the grouping, the mice were intragastrically administered saline, Dex and CT-NA, respectively. Thereafter, the mice were exposed to fresh air or cigarette smoke generated from 3R4F research-grade cigarettes (containing about 600 mg TPM/m^3 and 29.9 mg nicotine/m^3) in a cuboid plastic box (65×50x×45 cm). Ten cigarettes were burned every day for seven days. After one cigarette was burned, the next cigarette was ignited. The daily body weight and general condition of the mice were checked. 24 hrs after the last exposure to the cigarette smoke, the partial pressure of oxygen (PO2) of all mice was measured by the Moor VMS-OXY™ measuring instrument, which was used to measure the oxygenated/deoxygenated hemoglobin concentration and oxygen saturation (percentage) in the microcirculation at the wavelength range of 500 to 650 nm. Then, all mice were euthanized to collect bronchoalveolar lavage fluid (BALF) for measuring the total number of inflammatory cells, cytokine levels and albumin concentration. […]

RAW 264.7 macrophages = test: Cell viability (MTT) assay with CSE/PGD2; type: cell-based, mouse; details: 24 hrs
Protocol: The cell lines of RAW 264.7 macrophages and mouse leukemic mononuclear macrophages were purchased from American Type Culture Collection (ATCC, Manassas, Va., USA). RAW 264.7 macrophage was cultured in RPMI-1640 medium containing penicillin (100 U/ml), streptomycin (100 μg/ml) and 10% FBS. The cytotoxicity of CT-NA (0-100 μM) alone, and in a combination of PGD2 (0-100 μM) and CSE (1-10%) on RAW264.7 macrophage was assessed using methylthiazole-tetrazole (MTT) assay according to the manufacturer's protocol. Briefly, RAW 264.7 macrophages were seeded in a 96-well plate at a concentration of 4×10^5 cells/ml for 24 hrs, and then exposed to CT-NA (0-100 μM) at 37° C. for 1 hour. Next, RAW 264.7 macrophages were further exposed to CSE (4%) and PGD2 (10 μM) for 24 hrs, and then treated with MTT (5 mg/ml) at 37° C. for 4 hrs. Then, the supernatant of each well was replaced with DMSO (200 μl/well), and the absorbance at 570 nm was measured.

LPS-induced ALI mice [1] = test: LPS-induced ALI model: BALF cell counting; type: in vivo, Balb/c mice
Protocol: (§1) Specific pathogen-free (SPF) Balb/c mice (♂/♀; 20-26 g; 8 weeks old) were purchased from Shanghai SIPPR-BK Experimental Animal Co., Ltd. Mice were kept in an isolated ventilated cage in an environment of 40-60% humidity, 24±2° C., and 12 hrs/12 hrs dark-light cycle, and had free access to food and water. The method for preparing the LPS-induced ALI model was simply described as follows. The mice were randomly divided into a control group (12 mice) and an LPS group (48 mice). The LPS group (48 mice) was further divided into four subgroups (12 mice in each subgroup). […] 24 hrs after LPS challenge, the oxygen saturation (SO2) of all mice was measured by a Moor VMS-OXY™ instrument which measured SO2 (%) in the microcirculation at the wavelength range of 500 to 650 nm. […]
The mice were euthanized to expose the trachea, and then the right lungs were lavaged three times with 0.4 mL/time of sterile normal saline containing bovine serum albumin (BSA) and 5000 IU/L heparin to collect the BALF via tracheal tube. […] The removed lung tissues were weighted after aspirating the surface blood, and the lung weight coefficient was calculated. The lung weight coefficient was an indicator of pulmonary edema, and it was measured by dividing the individual lung weight of each mouse by its total body weight.

LPS-induced ALI mice [2] = test: LPS-induced ALI model: oxygen saturation (SO2); type: in vivo, Balb/c mice; details: CT-NA 10 or 30 mg/kg (P<0.01, dose-dependent), Dex 1 mg/kg; 24 hrs after LPS
Protocol: as §1, with “subgroup). The unanaesthetized mice in the four subgroups of LPS were intragastrically administered with normal saline (NS), CT-NA at 10 mg/kg or 30 mg/kg, and Dex at 1 mg/kg, respectively. One hour later, the mice were anesthetized with sodium pentobarbital (intraperitoneal injection at 40 mg/kg), and then subjected to intratracheal instillation of NS to control group and LPS (4 mg/kg) to all LPS subgroups. 12 hrs later, the unanaesthetized mice of the LPS group were intragastrically administered with NS, CT-NA at 10 mg/kg or 30 mg/kg, or Dex at 1 mg/kg, respectively (FIG. 16).” for “subgroup).”

How did the mean pathological scores (CS-induced ALI mice; CT-NA 10 and 30 mg/kg, Dex 1 mg/kg, 5-point scoring, dose-dependent, p<0.01) turn out when `CN([C@@H]1CCc2c(CC(=O)[O-])c3cccnc3n2C1)S(=O)(=O)c1ccc(F)cc1.[Na+]` [Sodium salt hydrate] was run?
Its mean pathological scores is “considerably reduced”.

And the “CS-induced pulmonary histopathological changes” value (CS-induced ALI mice; pretreatment with CT-NA 10 and 30 mg/kg or Dex 1 mg/kg, H&E)?
Its value is “strikingly improved”.

And the “cytotoxicity (MTT), CSE plus CT-NA” value (RAW 264.7 macrophages; CSE 4% plus CT-NA up to 100 μM)?
The value was “non-toxic”.

What about the “cytotoxicity (MTT), PGD2 plus CT-NA” value (RAW 264.7 macrophages; PGD2 (10 μM) plus CT-NA up to 100 μM) of the same compound?
The value was “non-toxic”.

What about the “BALF cell infiltration, performance compared with Dex” value (LPS-induced ALI mice [1]; CT-NA 30 mg/kg versus 1 mg/kg Dex) of the same compound?
The value was “essentially same performance as that of 1 mg/kg Dex”.

What about the “LPS-induced increase of total cells, neutrophils and macrophages in BALF” value (LPS-induced ALI mice [1]; CT-NA 10 and 30 mg/kg intragastric 1 h before and 12 hrs after LPS, BALF 24 hrs after LPS, P<0.01) of the same compound?
The value was “significantly and dose-dependently attenuated”.

What about the “oxygen saturation (SO2)” value (LPS-induced ALI mice [2]) of the same compound?
Its value is “significantly increased”.
